In patent publication US10882829B2, “Pharmaceutical compounds” (Sareum Limited, priority 2012, dated 2021):

Legend:
Format in all cases: biochemical
JAK1 = JAK1 (Homo sapiens (Human), UniProt P23458); experiment: JAK1 kinase inhibition assay (33P-ATP, Reaction Biology Corp.); conditions: substrate pEY, 120 min at room temperature, read-out: In Vitro Enzyme IC50 (nM) JAK1
Description: (§1) Compounds of the invention were assayed for their ability to inhibit TYK2 kinase and other JAK kinases.
(§2) Substrates and kinases used in the assays are identified in Table 2 below.

JAK2 = JAK2 (Homo sapiens (Human), UniProt O60674); experiment: JAK2 kinase inhibition assay (33P-ATP, Reaction Biology Corp.); conditions: substrate pEY, 120 min at room temperature, read-out: In Vitro Enzyme IC50 (nM) JAK2
JAK2, sequence (O60674 809-1132): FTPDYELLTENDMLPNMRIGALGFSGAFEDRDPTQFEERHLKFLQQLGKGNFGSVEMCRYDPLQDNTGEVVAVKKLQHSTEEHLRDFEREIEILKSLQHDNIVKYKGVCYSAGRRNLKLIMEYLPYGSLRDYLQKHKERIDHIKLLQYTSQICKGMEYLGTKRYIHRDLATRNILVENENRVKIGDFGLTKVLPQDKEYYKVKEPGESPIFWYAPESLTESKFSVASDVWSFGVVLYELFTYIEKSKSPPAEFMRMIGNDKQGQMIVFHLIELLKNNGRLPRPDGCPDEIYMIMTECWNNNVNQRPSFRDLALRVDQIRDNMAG
Description: as §1, §2

JAK3 = JAK3 (Homo sapiens (Human), UniProt P52333); experiment: JAK3 kinase inhibition assay (33P-ATP, Reaction Biology Corp.); conditions: substrate JAK3tide, 120 min at room temperature, read-out: In Vitro Enzyme IC50 (nM) JAK3
JAK3, sequence (P52333 781-1124): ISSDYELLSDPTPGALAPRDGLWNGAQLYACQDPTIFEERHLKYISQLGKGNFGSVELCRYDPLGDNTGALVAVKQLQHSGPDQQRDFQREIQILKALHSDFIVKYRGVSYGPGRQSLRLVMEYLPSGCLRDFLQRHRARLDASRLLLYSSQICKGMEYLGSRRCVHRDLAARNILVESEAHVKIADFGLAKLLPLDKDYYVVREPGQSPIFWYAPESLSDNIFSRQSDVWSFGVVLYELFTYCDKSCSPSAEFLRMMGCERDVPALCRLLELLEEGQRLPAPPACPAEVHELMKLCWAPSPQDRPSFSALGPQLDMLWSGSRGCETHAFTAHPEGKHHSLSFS
Description: as §1, §2

TYK2 kinase = TYK2 kinase (Homo sapiens (Human), UniProt P29597); experiment: TYK2 kinase inhibition assay (33P-ATP, Reaction Biology Corp.); conditions: substrate AXLtide, 120 min at room temperature, read-out: In Vitro Enzyme IC50 (nM) TYK2
TYK2 kinase, sequence (P29597 833-1187): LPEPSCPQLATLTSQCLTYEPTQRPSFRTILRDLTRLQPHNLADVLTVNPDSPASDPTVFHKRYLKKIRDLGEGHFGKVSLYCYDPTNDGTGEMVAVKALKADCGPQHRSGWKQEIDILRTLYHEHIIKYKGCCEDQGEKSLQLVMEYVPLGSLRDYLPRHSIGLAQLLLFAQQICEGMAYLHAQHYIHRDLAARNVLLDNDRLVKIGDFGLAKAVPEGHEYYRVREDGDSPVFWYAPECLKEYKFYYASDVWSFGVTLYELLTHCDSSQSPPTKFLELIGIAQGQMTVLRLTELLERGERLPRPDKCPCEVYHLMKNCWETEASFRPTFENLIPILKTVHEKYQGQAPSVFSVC
Description: as §1, §2

JAK1, sequence (P23458 866-1154): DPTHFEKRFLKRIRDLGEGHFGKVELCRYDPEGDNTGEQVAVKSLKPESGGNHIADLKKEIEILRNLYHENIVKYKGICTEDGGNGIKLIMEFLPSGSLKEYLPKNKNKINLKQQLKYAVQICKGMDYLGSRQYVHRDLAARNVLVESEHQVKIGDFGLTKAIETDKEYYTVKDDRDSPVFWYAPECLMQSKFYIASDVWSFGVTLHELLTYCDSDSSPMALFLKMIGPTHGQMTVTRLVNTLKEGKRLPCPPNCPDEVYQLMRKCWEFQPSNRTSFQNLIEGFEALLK

| Compound | IC50 (JAK1) [nM] | IC50 (JAK2) [nM] | IC50 (JAK3) [nM] | IC50 (TYK2 kinase) [nM] |
| --- | --- | --- | --- | --- |
| CN(C)C(=O)c1ccc(Nc2oc(-c3c(F)cccc3F)nc2C(N)=O)cc1 [Example 5, 2-(2,6-difluorophenyl)-5-(4-(dimethylcarbamoyl)phenylamino)oxazole-4-carboxamide] | 88.6 | 112 | 219 | 9.2 |
| NC(=O)c1nc(-c2c(F)cccc2F)oc1Nc1ccc(C(=O)N[C@H]2CCNC2)cc1 [Example 13, (S)-2-(2,6-difluorophenyl)-5-(4-(pyrrolidin-3-ylcarbamoyl)phenylamino)oxazole-4-carboxamide] | 123 | 182 | 342 | 11.2 |
| NC(=O)c1nc(-c2c(F)cccc2F)oc1Nc1ccc(C(=O)N[C@@H]2CCNC2)cc1 [Example 12, (R)-2-(2,6-difluorophenyl)-5-(4-(pyrrolidin-3-ylcarbamoyl)phenylamino)oxazole-4-carboxamide] | 169 | 292 | 346 | 23.4 |
| CN(C)S(=O)(=O)c1ccc(Nc2oc(-c3c(F)cccc3F)nc2C(N)=O)cc1 [Example 3, 2-(2,6-difluorophenyl)-5-(4-(N,N-dimethylsulfamoyl)phenylamino)oxazole-4-carboxamide] | 47.6 | 95 | 359 | 5.3 |
| CNCCNC(=O)c1ccc(Nc2oc(-c3c(F)cccc3F)nc2C(N)=O)cc1 [Example 10, 5-(4-((2-(methylamino)ethyl)carbamoyl)phenylamino)-2-(2,6-difluorophenyl) oxazole-4-carboxamide] | 183 | 311 | 397 | 20.5 |
| NC(=O)c1nc(-c2c(F)cccc2F)oc1Nc1ccc(C(=O)NC2CCNCC2)cc1 [Example 17, 2-(2,6-difluorophenyl)-5-(4-(piperidin-4-ylcarbamoyl)phenylamino)oxazole-4-carboxamide] | 153 | 167 | 99.2 | 13.7 |
| NC(=O)c1nc(-c2c(F)cccc2F)oc1Nc1ccc(C(=O)N2CCOCC2)cc1 [Example 9, 2-(2,6-difluorophenyl)-5-(4-(morpholine-4-carbonyl)phenylamino)oxazole-4-carboxamide] | 75.6 | 267 | 423 | 22.7 |
| CS(=O)(=O)c1ccc(Nc2oc(-c3c(F)cc(F)cc3F)nc2C(N)=O)cc1 [Example 21, 5-(4-Methanesulfonyl-phenylamino)-2-(2,4,6-trifluoro-phenyl)-oxazole-4-carboxylic acid amide] | 241 | 412 | 2180 | 68.3 |
| CNS(=O)(=O)c1ccc(Nc2oc(-c3c(F)cccc3F)nc2C(N)=O)cc1 [Example 4, 2-(2,6-difluorophenyl)-5-(4-(N′-methylsulfamoyl)phenylamino)oxazole-4-carboxamide] | 65.6 | 109 | 387 | 13.8 |
| CS(=O)(=O)c1ccc(Nc2oc(-c3c(Cl)cccc3Cl)nc2C(N)=O)cc1 [Example 19, 2-(2,6-Dichloro-phenyl)-5-(4-methanesulfonyl-phenylamino)-oxazole-4-carboxylic acid amide] | 21.9 | 87.7 | 214 | 2.3 |
| NC(=O)c1nc(-c2c(F)cccc2F)oc1Nc1ccc(C(=O)NCCCO)cc1 [Example 16, 5-(4-((3-hydroxypropyl)carbamoyl)phenylamino)-2-(2,6-difluorophenyl)oxazole-4-carboxamide] | 58.1 | 119 | 199 | 8.4 |
| CN1CCC(NC(=O)c2ccc(Nc3oc(-c4c(F)cccc4F)nc3C(N)=O)cc2)CC1 [Example 18, 5-(4-((1-methylpiperidin-4-yl)carbamoyl)phenylamino)-2-(2,6-difluorophenyl) oxazole-4-carboxamide] | 118 | 192 | 165 | 13.8 |
| CS(=O)(=O)c1ccc(Nc2oc(-c3c(F)cccc3Cl)nc2C(N)=O)cc1 [Example 20, 2-(2-Chloro-6-fluoro-phenyl)-5-(4-methanesulfonyl-phenylamino)-oxazole-4-carboxylic acid amide] | 28.7 | 72.6 | 165 | 2.7 |
| CNCCCNC(=O)c1ccc(Nc2oc(-c3c(F)cccc3F)nc2C(N)=O)cc1 [Example 11, 5-(4-((3-(methylamino)propyl)carbamoyl)phenylamino)-2-(2,6-difluorophenyl) oxazole-4-carboxamide] | 190 | 338 | 388 | 15.1 |
| NC(=O)c1nc(-c2c(F)cccc2F)oc1Nc1ccc(S(N)(=O)=O)cc1 [Example 2, 2-(2,6-difluorophenyl)-5-(4-sulfamoylphenylamino)oxazole-4-carboxamide] | 78.2 | 147 | 419 | 14.6 |
| NCCCNC(=O)c1ccc(Nc2oc(-c3c(F)cccc3F)nc2C(N)=O)cc1 [Example 6, 5-(4-((3-aminopropyl)carbamoyl)phenylamino)-2-(2,6-difluorophenyl)oxazole-4-carboxamide] | 192 | 297 | 472 | 25 |
| NC(=O)c1nc(-c2c(F)cccc2F)oc1Nc1ccc(C(=O)N[C@H]2CCCNC2)cc1 [Example 8, (S)-2-(2,6-difluorophenyl)-5-(4-(piperidin-3-ylcarbamoyl)phenylamino)oxazole-4-carboxamide] | 201 | 268 | 408 | 12.9 |
| CS(=O)(=O)c1ccc(Nc2oc(-c3c(F)cccc3F)nc2C(N)=O)cc1 [Example 1, 2-(2,6-difluorophenyl)-5-(4-(methylsulfonyl)phenylamino)oxazole-4-carboxamide] | 90.2 | 235 | 405 | 13.5 |
| NC(=O)c1nc(-c2c(F)cccc2F)oc1Nc1ccc(C(=O)N2CCC[C@@H]2CO)cc1 [Example 14, (R)-2-(2,6-difluorophenyl)-5-(4-(2-(hydroxymethyl)pyrrolidine-1-carbonyl)phenylamino)oxazole-4-carboxamide] | 67.2 | 36 | 126 | 9.6 |
| NC(=O)c1nc(-c2c(F)cccc2F)oc1Nc1ccc(C(=O)N[C@@H]2CCCNC2)cc1 [Example 7, (R)-2-(2,6-difluorophenyl)-5-(4-(piperidin-3-ylcarbamoyl)phenylamino)oxazole-4-carboxamide] | 202 | 261 | 419 | 9.8 |
| CS(=O)(=O)c1ccc(Nc2oc(-c3cc(F)ccc3F)nc2C(N)=O)cc1 [Example 22, 2-(2,5-Difluoro-phenyl)-5-(4-methanesulfonyl-phenylamino)-oxazole-4-carboxylic acid amide] | 843 | 663 | 5500 | 183 |
| NC(=O)c1nc(-c2c(F)cccc2F)oc1Nc1ccc(C(=O)NCCO)cc1 [Example 15, 5-(4-((2-hydroxyethyl)carbamoyl)phenylamino)-2-(2,6-difluorophenyl)oxazole-4-carboxamide] | 41.1 | 101 | 195 | 7.5 |
